Results reported in patent publication US10550144B2, “6-aryl-9-glycosylpurines and use thereof” (UNIVERZITA PALACKEHO V OLOMOUCI, priority 2014, dated 2020).
Like-named read-outs stand apart in the source and are kept apart here.

Assays:
[1] = system: skin fibroblasts BJ and keratinocytes HaCaT; test: MTT in vitro cytotoxicity test on skin cells; format: cell-based, human
Method: MTT assay is a standard test of toxicity based on photometric measurement of the ability of metabolically active cells to reduce MTT (3-(4,5-dimethylthiazol-2-yl)-2,5-diphenyltetrazolium bromide). Using the assay, the effects of 72 hour treatments with several concentrations of the compounds (sixfold dilution, maximal concentration=50 microM) on viability of skin fibroblasts BJ and keratinocytes HaCaT were evaluated. About 5,000 cells were seeded per well of a 96-well plate 24 hours before the treatment. DMSO vehiculum was used as a negative control. After 72 hour treatment, new medium with MTT (Sigma, M2128) was added to a final concentration of 0.5 mg/ml. After 3 hours, medium was removed and resulting formazan in the cells was dissolved in DMSO. The absorbance was measured at 570 nm (640 nm reference wavelength). The IC50 values were calculated from the dose-response curves. 6-Benzylaminopurine riboside and 6-furfurylaminopurine riboside were used as positive controls they were toxic in the MTT test.

[2] = system: Gymnosporia buxifolia shoot-tip explants; test: Shoot-tip necrosis in in vitro cultures of Gymnosporia buxifolia; details: after 4 weeks of culture
[3] = system: Amelanchier alnifolia nodal explants; test: Micropropagation growth response with BAP, Amelanchier alnifolia; details: after 35 days in vitro, N = 9
[4] = system: Harpagophytum procumbens nodal explants; test: Micropropagation growth response with BAP, Harpagophytum procumbens; details: after 35 days in vitro, N = 12
[5] = system: Herpes simplex virus; details: Masakatsu et al. 1977; cited from earlier work
[6] = system: Dais cotinifolia shoot-tip explants; test: Shoot multiplication and shoot-tip necrosis in shoot cultures of Dais cotinifolia; format: in vivo; details: after 8 weeks of culture
Method: Explants were washed thoroughly with 0.1% (v/v) of Tween® 20 for 2 min, and decontaminated with 70% ethanol for 15 sec followed by 0.2% aqueous HgCl2 for 10 min. The explants were rinsed five times with sterile distilled water. […] Each value was presented as the mean±standard error, with three replicates; each replicate consisting of 15 explants per treatment.

[7] = system: Vaccinia virus; details: Masakatsu et al. 1977; cited from earlier work

## OC[C@H]1OC(n2cnc3c(NCc4ccccc4)ncnc32)[C@H](O)[C@@H]1O (stereo partly drawn) [6-benzylaminopurin9-ribosylpurine]
[1]
  toxicity in the MTT test: toxic
[1]; MTT, 72 hour treatment, maximal concentration 50 microM, BJ and HaCaT, table does not separate the cell lines
  IC50: ≤ 3000 nM

## OC[C@H]1OC(n2cnc3c(NCc4ccco4)ncnc32)[C@H](O)[C@@H]1O (stereo partly drawn) [6-furfurylamino-9-ribosylpurine]
[1]; 72 hour treatment
  toxicity in the MTT test: toxic

## Cc1cccc(CNc2ncnc3c2ncn3[C@@H]2O[C@H](CO)[C@@H](O)[C@@H]2O)c1 [Example 3CH3BAPA, 6-(3-methylbenzylamino)-9-β-D-arabinofuranosylpurine]
[2]; 5 μM in MS medium
  STN [%] (shoot-tip necrosis): 53.3 ± 0.24d %
  Shoot length [cm]: 1.36 ± 0.27bc cm
  Shoots [explant^−1] […]: 1.0 ± 0.0a explant^−1
[2]; 10 μM in MS medium
  STN [%] (shoot-tip necrosis): 40.0 ± 0.20fg %
  Shoot length [cm]: 1.82 ± 0.17b cm
  Shoots [explant^−1] […]: 1.0 ± 0.0a explant^−1
[2]; 20 μM in MS medium
  STN [%] (shoot-tip necrosis): 22.6 ± 0.28hi %
  Shoot length [cm]: 3.30 ± 0.14a cm
  Shoots [explant^−1] […]: 1.0 ± 0.0a explant^−1
[2]; 30 μM in MS medium
  STN [%] (shoot-tip necrosis): 13.3 ± 0.24j %
  Shoot length [cm]: 3.00 ± 0.11a cm
  Shoots [explant^−1] […]: 1.0 ± 0.0a explant^−1
[3]; 5 μM compound with 10 μM BAP
  Fresh weight (g) mean SE: 0.249 ± 0.0594 g
  Shoot length (mm) mean SE: 14.11 ± 1.670 mm
  Shoot no. mean SE: 7.6 ± 2.10
[3]; 10 μM compound with 10 μM BAP
  Fresh weight (g) mean SE: 0.349 ± 0.1025 g
  Shoot length (mm) mean SE: 18.89 ± 2.288 mm
  Shoot no. mean SE: 10.6 ± 2.75
[3]; 20 μM compound with 10 μM BAP
  Fresh weight (g) mean SE: 0.563 ± 0.0729 g
  Shoot length (mm) mean SE: 16.22 ± 1.730 mm
  Shoot no. mean SE: 13.7 ± 2.06
[3]; 30 μM compound with 10 μM BAP
  Fresh weight (g) mean SE: 0.335 ± 0.0877 g
  Shoot length (mm) mean SE: 18.33 ± 3.122 mm
  Shoot no. mean SE: 11.6 ± 2.99
[4]; 5 μM compound with 10 μM BAP
  Fresh weight (g) mean SE: 0.8607 ± 0.1884 g
  Shoot length (mm) mean SE: 28.6 ± 4.397 mm
  Shoot no. mean SE: 2.8 ± 0.573
[4]; 10 μM compound with 10 μM BAP
  Fresh weight (g) mean SE: 1.0523 ± 0.2439 g
  Shoot length (mm) mean SE: 45.8 ± 7.094 mm
  Shoot no. mean SE: 2.6 ± 0.340
[4]; 20 μM compound with 10 μM BAP
  Fresh weight (g) mean SE: 0.8456 ± 0.1339 g
  Shoot length (mm) mean SE: 27 ± 3.531 mm
  Shoot no. mean SE: 2.3 ± 0.423
[4]; 30 μM compound with 10 μM BAP
  Fresh weight (g) mean SE: 1.1419 ± 0.213 g
  Shoot length (mm) mean SE: 40.6 ± 4.831 mm
  Shoot no. mean SE: 3.8 ± 0.593
[5]
  activity in killing Herpes simplex virus: No effect
[6]; 5 μM in MS medium
  Morphogenesis in vitro: Green shoots
  STN [%] (shoot-tip necrosis): 52.2 ± 0.89b %
  Shoot length [cm]: 1.42 ± 0.21bc cm
  Shoots [explant^−1] […]: 1.0 ± 0.00c explant^−1
[6]; 10 μM in MS medium
  Morphogenesis in vitro: Green shoots
  STN [%] (shoot-tip necrosis): 50.0 ± 0.75bc %
  Shoot length [cm]: 1.86 ± 0.14ab cm
  Shoots [explant^−1] […]: 1.0 ± 0.00c explant^−1
[6]; 20 μM in MS medium
  Morphogenesis in vitro: Pale green shoots
  STN [%] (shoot-tip necrosis): 45.5 ± 0.95d %
  Shoot length [cm]: 1.94 ± 0.09ab cm
  Shoots [explant^−1] […]: 1.8 ± 0.48bc explant^−1
[6]; 30 μM in MS medium
  Morphogenesis in vitro: Pale green shoots
  STN [%] (shoot-tip necrosis): 31.3 ± 1.12ef %
  Shoot length [cm]: 2.26 ± 0.22a cm
  Shoots [explant^−1] […]: 2.2 ± 0.32b explant^−1
[7]
  activity in killing Vaccinia virus: No effect
